Results: patent US12171813B2, “Methods of and compositions for reducing gene expression and/or activity” (Christiana Care Gene Editing Institute, Inc., priority 2021, dated 2024)

Tested on: EGFR
Experiment: cDNA PCR analysis of exon skipping / full-size transcript in EGFR
Assay type: cell-based, Human
Details: gRNA on its own; PDMR lung adenocarcinoma cells
Protocol: After CRISPR reactions, total RNA was prepared, and cDNA synthesized for PCR amplification of the target region from EGFR. PCR-amplified DNA was then analyzed by electrophoresis through a 1% agarose gel for 75 minutes at 80v. DNA was stained with SYBR Safe. Lanes 1 and 13: NEB 2 Log Ladder; Lane 2: Scrambled gRNA; Lane 3: EGFR 21-22 SureKill gRNA 11 alone; Lane 4: EGFR 21-22 SureKill gRNA 13 alone; Lane 5: EGFR 21-22 SureKill gRNA 16 alone; Lane 6: EGFR 21-22 SureKill gRNA 17 alone; Lane 7: EGFR 21-22 SureKill gRNA 19 alone; Lane 8: EGFR 21-22 SureKill gRNA 22 alone; Lane 9: EGFR 21-22 SureKill gRNA 23 alone; Lane 10: EGFR 21-22 SureKill gRNA 27 alone; Lane 11: EGFR 21-22 SureKill gRNA 28 alone; Lane 12: EGFR 21-22 SureKill gRNA 29 alone. On the left side of the image are markers indicating DNA size in bp.
After CRISPR reactions, total RNA was prepared, and cDNA synthesized for semi-quantitative PCR amplification of the target region from EGFR. PCR amplification was performed for 25 cycles. PCR-amplified DNA was then analyzed by electrophoresis through a 1% agarose gel for 75 minutes at 80v. DNA was stained with SYBR Safe. […]
Transfections were carried out using the Lonza Nuclefector 4d. […] RNPs were complexed at 250:50 pmol for 30 minutes prior to transfection, during which time cells were harvested and counted. […]

For “L858R gRNA: guide RNA TCAAGATCACAGATTTTGGG, SEQ ID NO:8, targets EGFR L858R mutation (listed as DNA, chemistry not given here)”, the “exon skipping (cDNA analysis)” value was “induced some level of exon skipping”.
